Data published in patent publication US20130344065A1, “Combination Treatment with VEGF-C Antagonists” (Vegenics Pty Ltd, priority 2010, published 2013).
Values joined by “and” are separate entries in the source; they are usually repeats but may differ in a detail not shown here. Equal values may be shown once.

System: PC-3 human prostate carcinoma xenografts
Assay: PC-3 xenograft combination therapy (Example 3, first study);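 further: subcutaneous PC-3 tumors in male athymic NCr nude mice aged 6-7 weeks, combination agents dosed within 30 min of each other, animals euthanized once tumors exceeded 2 g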

VGX-100: VEGF-C antibody; heavy chain SEQ ID NO: 3, light chain SEQ ID NO: 4
Time to evaluation size (750 mg, individual animals): 39.5 days and 22.8 days and 19.9 days and 22.3 days and 33.5 days and 18.5 days and 31.1 days and 19.4 days and 22.0 days and 22.2 days | Tumor Growth Delay (T-C, evaluation size 750 mg, same doses): 2.2 days | % T/C Day 22 (VGX-100 40 mg/kg IP, bevacizumab 10 mg/kg IP, docetaxel 10 mg/kg IV, median tumor mass vs control): 87% | % T/C: tumor burden in treatment group compared to control (at day 160): 97.9% | % TFS (tumor free survivors) (at termination, Day 160, same doses): 0% | Td (group mean): 8.3 days | Time to evaluation size (group mean): 25.1 days | Time to fold growth EP (group mean): 20.4 days | Td (group median): 6.2 days | Time to evaluation size (group median): 22.2 days | Time to fold growth EP (group median): 20.8 days | Time to fold growth EP (individual animals): 27.4 days and 20.9 days and 16.4 days and 21.5 days and 28.2 days and 13.9 days and 21.3 days and 15.8 days and 17.9 days and 20.7 days | Complete regression (individual animals, yes/no): no | Partial regression (individual animals, yes/no): no | Tumor free survivor (individual animals, yes/no): no | Total CR (number of animals of 10): 0 | Total PR (number of animals of 10): 0 | Total TFS (number of animals of 10): 0 | % CR (complete regression) (same doses): 0% | % PR (partial regression) (same doses): 0% | Anticancer activity of regimen (same doses): ineffective | Apparent Net Tumor Cell Kill (logs) (same doses): −2.85 logs | Tumor regressions (same doses): Nor tumor regressions were observed | Td (tumor doubling time, individual animals): 16.6 days and 5.1 days and 6.0 days and 6.1 days and 14.1 days and 5.7 days and 12.3 days and 6.3 days and 7.1 days and 3.8 days
